# Measured values taken from patent publication US8445676B2, “Pyrrolotriazine kinase inhibitors” (Bristol-Myers Squibb Company, priority 2008, dated 2013).
# pIC50: −log10 of the molar value.
# Biological target: JAK2 (Homo sapiens, UniProt O60674)
# Test: JAK2 Tyrosine Kinase Assay
# Assay type: biochemical
# Details: list of named compounds; read-out: IC50 in the JAK2 assay
# Experimental: JAK2 Tyrosine Kinase Assay
# The assays were performed in V-bottom 384-well plates. […] The reaction was initiated by the combination of JAK2 with substrates and test compounds. The reaction was incubated at room temperature for 60 min. and terminated by adding 45 μl of 35 mM EDTA to each sample. The reaction mixture was analyzed on the Caliper LabChip 3000 by electrophoretic separation of the fluorescent substrate and phosphorylated product. […] Compounds were dissolved at 10 mM in dimethylsulfoxide (DMSO) and evaluated at eleven concentrations, each in duplicate. IC50 values were derived by non-linear regression analysis
# JAK2, sequence (O60674 whole entry): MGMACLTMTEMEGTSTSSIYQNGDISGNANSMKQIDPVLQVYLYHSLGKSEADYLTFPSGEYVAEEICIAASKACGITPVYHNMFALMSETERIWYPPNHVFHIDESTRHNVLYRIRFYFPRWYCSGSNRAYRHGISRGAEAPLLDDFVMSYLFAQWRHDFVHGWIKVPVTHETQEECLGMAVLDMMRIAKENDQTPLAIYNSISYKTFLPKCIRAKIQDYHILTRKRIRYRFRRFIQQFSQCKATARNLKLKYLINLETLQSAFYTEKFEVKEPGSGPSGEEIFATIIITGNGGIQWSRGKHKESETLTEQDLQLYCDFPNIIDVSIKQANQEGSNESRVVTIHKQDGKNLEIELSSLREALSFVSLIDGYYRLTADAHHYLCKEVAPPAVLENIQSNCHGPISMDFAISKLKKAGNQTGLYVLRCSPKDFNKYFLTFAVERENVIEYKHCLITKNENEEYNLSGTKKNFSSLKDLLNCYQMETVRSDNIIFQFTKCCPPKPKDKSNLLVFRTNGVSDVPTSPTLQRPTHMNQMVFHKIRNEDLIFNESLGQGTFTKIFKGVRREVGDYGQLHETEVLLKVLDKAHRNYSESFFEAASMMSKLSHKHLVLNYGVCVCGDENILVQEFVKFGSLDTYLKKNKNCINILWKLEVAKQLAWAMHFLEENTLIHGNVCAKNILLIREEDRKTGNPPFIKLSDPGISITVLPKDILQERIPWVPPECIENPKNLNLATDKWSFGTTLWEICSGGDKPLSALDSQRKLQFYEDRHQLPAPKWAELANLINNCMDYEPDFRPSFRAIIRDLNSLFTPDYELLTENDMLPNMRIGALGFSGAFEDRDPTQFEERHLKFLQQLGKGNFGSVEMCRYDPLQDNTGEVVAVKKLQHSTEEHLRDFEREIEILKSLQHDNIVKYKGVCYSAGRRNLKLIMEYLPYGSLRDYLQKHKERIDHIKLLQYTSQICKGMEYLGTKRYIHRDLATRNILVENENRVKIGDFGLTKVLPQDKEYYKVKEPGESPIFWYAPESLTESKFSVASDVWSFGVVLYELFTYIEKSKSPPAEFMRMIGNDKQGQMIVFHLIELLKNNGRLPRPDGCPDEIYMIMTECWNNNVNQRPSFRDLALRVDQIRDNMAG
row,pIC50,SMILES
1,≥ 8.30,"Cc1cc(Nc2nc(N3CCN(C(=O)c4cc[nH]n4)CC3)nn3cccc23)n[nH]1 [N-(5-methyl-1H-pyrazol-3-yl)-2-(4-(1H-pyrazol-3-ylcarbonyl)-1-piperazinyl)pyrrolo[2,1-f][1,2,4]triazin-4-amine]"
2,≥ 8.30,"Cc1cc(Nc2nc(N3CCN(C(=O)Cc4ccccc4C#N)CC3)nn3cccc23)n[nH]1 [2-(2-(4-(4-((5-methyl-1H-pyrazol-3-yl)amino)pyrrolo[2,1-f][1,2,4]triazin-2-yl)-1-piperazinyl)-2-oxoethyl)benzonitrile]"
3,≥ 8.30,"Cc1cc(Nc2nc(N3CCN(C(=O)C(C)(C)c4ccc(Cl)cc4)CC3)nn3cccc23)n[nH]1 [2-(4-(2-(4-chlorophenyl)-2-methylpropanoyl)-1-piperazinyl)-N-(5-methyl-1H-pyrazol-3-yl)pyrrolo[2,1-f][1,2,4]triazin-4-amine]"
4,≥ 8.30,"Cc1cc(Nc2nc(N3CCN(C(=O)Cc4cccc(F)c4)CC3)nn3cccc23)n[nH]1 [2-(4-((3-fluorophenyl)acetyl)-1-piperazinyl)-N-(5-methyl-1H-pyrazol-3-yl)pyrrolo[2,1-f][1,2,4]triazin-4-amine]"
5,≥ 8.30,"COc1cccc(F)c1C(=O)N1CCN(c2nc(Nc3cc(C)[nH]n3)c3cccn3n2)CC1 [2-(4-(2-fluoro-6-methoxybenzoyl)-1-piperazinyl)-N-(5-methyl-1H-pyrazol-3-yl)pyrrolo[2,1-f][1,2,4]triazin-4-amine]"
6,≥ 8.30,"CC[C@H](C(=O)N1CCN(c2nc(Nc3cc(C)[nH]n3)c3cccn3n2)CC1)c1ccccc1 [N-(5-methyl-1H-pyrazol-3-yl)-2-(4-((2S)-2-phenylbutanoyl)-1-piperazinyl)pyrrolo[2,1-f][1,2,4]triazin-4-amine]"
7,≥ 8.30,"Cc1cc(Nc2nc(N3CCN(C(=O)c4c(F)cccc4Cl)CC3)nn3cccc23)n[nH]1 [2-(4-(2-chloro-6-fluorobenzoyl)-1-piperazinyl)-N-(5-methyl-1H-pyrazol-3-yl)pyrrolo[2,1-f][1,2,4]triazin-4-amine]"
8,≥ 8.30,"Cc1csc(C(=O)N2CCN(c3nc(Nc4cc(C)[nH]n4)c4cccn4n3)CC2)c1 [N-(5-methyl-1H-pyrazol-3-yl)-2-(4-((4-methyl-2-thienyl)carbonyl)-1-piperazinyl)pyrrolo[2,1-f][1,2,4]triazin-4-amine]"
9,≥ 8.30,"Cc1cc(Nc2nc(N3CCN(C(=O)C(O)c4ccc(Cl)cc4)CC3)nn3cccc23)n[nH]1 (stereo not shown) [1-(4-chlorophenyl)-2-(4-(4-((5-methyl-1H-pyrazol-3-yl)amino)pyrrolo[2,1-f][1,2,4]triazin-2-yl)-1-piperazinyl)-2-oxoethanol]"
10,≥ 8.30,"Cc1cc(Nc2nc(N3CCN(C(=O)[C@](C)(O)c4ccc(F)cc4)CC3)nn3cccc23)n[nH]1 [(2R)-2-(4-fluorophenyl)-1-(4-(4-((5-methyl-1H-pyrazol-3-yl)amino)pyrrolo[2,1-f][1,2,4]triazin-2-yl)-1-piperazinyl)-1-oxo-2-propanol]"
11,≥ 8.30,"Cc1cc(Nc2nc(N3CCN(C(=O)c4cccc(Cl)c4)CC3)nn3cccc23)n[nH]1 [2-(4-(3-chlorobenzoyl)-1-piperazinyl)-N-(5-methyl-1H-pyrazol-3-yl)pyrrolo[2,1-f][1,2,4]triazin-4-amine]"
12,≥ 8.30,"Cc1cc(Nc2nc(N3CCN(C(=O)c4cccc(C#N)c4)CC3)nn3cccc23)n[nH]1 [3-((4-(4-((5-methyl-1H-pyrazol-3-yl)amino)pyrrolo[2,1-f][1,2,4]triazin-2-yl)-1-piperazinyl)carbonyl)benzonitrile]"
13,≥ 8.30,"Cc1cc(Nc2nc(N3CCN(C(=O)C4Cc5ccccc54)CC3)nn3cccc23)n[nH]1 (stereo not shown) [2-(4-(bicyclo[4.2.0]octa-1,3,5-trien-7-ylcarbonyl)-1-piperazinyl)-N-(5-methyl-1H-pyrazol-3-yl)pyrrolo[2,1-f][1,2,4]triazin-4-amine]"
14,≥ 8.30,"CCC(C(=O)N1CCN(c2nc(Nc3cc(C)[nH]n3)c3cccn3n2)CC1)c1ccccc1 (stereo not shown) [N-(5-methyl-1H-pyrazol-3-yl)-2-(4-(2-phenylbutanoyl)-1-piperazinyl)pyrrolo[2,1-f][1,2,4]triazin-4-amine]"
15,≥ 8.30,"Cc1cc(Nc2nc(N3CCN(C(=O)c4sc5ccccc5c4Cl)CC3)nn3cccc23)n[nH]1 [2-(4-((3-chloro-1-benzothiophene-2-yl)carbonyl)-1-piperazinyl)-N-(5-methyl-1H-pyrazol-3-yl)pyrrolo[2,1-f][1,2,4]triazin-4-amine]"
16,≥ 8.30,"Cc1cc(Nc2nc(N3CCN(C(=O)c4ccccc4Oc4ccccc4)CC3)nn3cccc23)n[nH]1 [N-(5-methyl-1H-pyrazol-3-yl)-2-(4-(2-phenoxybenzoyl)-1-piperazinyl)pyrrolo[2,1-f][1,2,4]triazin-4-amine]"
17,≥ 8.30,"Cc1cc(Nc2nc(N3CCN(C(=O)c4csnn4)CC3)nn3cccc23)n[nH]1 [N-(5-methyl-1H-pyrazol-3-yl)-2-(4-(1,2,3-thiadiazol-4-ylcarbonyl)-1-piperazinyl)pyrrolo[2,1-f][1,2,4]triazin-4-amine]"
18,≥ 8.30,"Cc1cc(Nc2nc(N3CCN(C(=O)c4ccc(F)cc4)CC3)nn3cccc23)n[nH]1 [2-(4-(4-fluorobenzoyl)-1-piperazinyl)-N-(5-methyl-1H-pyrazol-3-yl)pyrrolo[2,1-f][1,2,4]triazin-4-amine]"
19,≥ 8.30,"Cc1cc(Nc2nc(N3CCN(C(=O)c4ccccc4C#N)CC3)nn3cccc23)n[nH]1 [2-((4-(4-((5-methyl-1H-pyrazol-3-yl)amino)pyrrolo[2,1-f][1,2,4]triazin-2-yl)-1-piperazinyl)carbonyl)benzonitrile]"
20,≥ 8.30,"Cc1cc(Nc2nc(N3CCN(C(=O)c4ccccc4OC(F)(F)F)CC3)nn3cccc23)n[nH]1 [N-(5-methyl-1H-pyrazol-3-yl)-2-(4-(2-(trifluoromethoxy)benzoyl)-1-piperazinyl)pyrrolo[2,1-f][1,2,4]triazin-4-amine]"
21,≥ 8.30,"Cc1cc(Nc2nc(N3CCN(C(=O)CC4CCCCC4)CC3)nn3cccc23)n[nH]1 [2-(4-(cyclohexylacetyl)-1-piperazinyl)-N-(5-methyl-1H-pyrazol-3-yl)pyrrolo[2,1-f][1,2,4]triazin-4-amine]"
22,≥ 8.30,"Cc1cc(Nc2nc(N3CCN(C(=O)c4cccn4C)CC3)nn3cccc23)n[nH]1 [N-(5-methyl-1H-pyrazol-3-yl)-2-(4-((1-methyl-1H-pyrrol-2-yl)carbonyl)-1-piperazinyl)pyrrolo[2,1-f][1,2,4]triazin-4-amine]"
23,≥ 8.30,"Cc1cc(Nc2nc(N3CCN(C(=O)Cc4ccccc4)CC3)nn3cccc23)n[nH]1 [N-(5-methyl-1H-pyrazol-3-yl)-2-(4-(phenylacetyl)-1-piperazinyl)pyrrolo[2,1-f][1,2,4]triazin-4-amine]"
24,≥ 8.30,"Cc1cc(Nc2nc(N3CCN(C(=O)Cc4ccccc4Cl)CC3)nn3cccc23)n[nH]1 [2-(4-((2-chlorophenyl)acetyl)-1-piperazinyl)-N-(5-methyl-1H-pyrazol-3-yl)pyrrolo[2,1-f][1,2,4]triazin-4-amine]"
25,≥ 8.30,"Cc1cc(Nc2nc(N3CCN(C(=O)C4(c5c(F)cccc5Cl)CCCCC4)CC3)nn3cccc23)n[nH]1 [2-(4-((1-(2-chloro-6-fluorophenyl)cyclohexyl)carbonyl)-1-piperazinyl)-N-(5-methyl-1H-pyrazol-3-yl)pyrrolo[2,1-f][1,2,4]triazin-4-amine]"
